In patent US20140120232A1, “ACID TASTE/ACID SMELL-REDUCING AGENT” (T. HASEGAWA CO., LTD., priority 2011, published 2014):

Experiment: Sensory evaluation of yogurt containing the agent
Settings: ten panels
Method: Sensory evaluation of each drink was carried out by ten panels. […] The piercing aroma characteristic to aldehydes is a characteristic aroma common to every aldehyde and refers to an irritant off-smell giving an image of deteriorated oils and fats, soap, metals, Houttuynia cordata, etc. The judgment of smell was performed by comparing the effects at different concentrations of the acid taste and/or acid smell-reducing agent, and a concentration giving the highest acid taste/acid smell quality was selected.
A yogurt base material as a control was prepared by mixing 100 parts by mass of commercially available plain yogurt (milk non-fat solids: 9.5%, milk fat component: 3.0%) with 0.1 parts by mass of acetic acid (glacial acetic acid: food additive, manufactured by Junsei Chemical Co., Ltd.) with stirring. To the resulting mixture was added (Z,Z)-4,7-tridecadienal as the acid taste and/or acid smell-reducing agent of the present invention in concentrations shown in the following Table 9 to give yogurt containing the agent, followed by sensory evaluation as in Example 1.

CCCCC/C=C\C/C=C\CCC=O [(Z,Z)-4,7-tridecadienal]
A: number of panels, acid taste/acid smell extreme and cause irritation (0.005 ppt): 10 | B: number of panels, acid taste/acid smell slightly strong and slightly cause irritation (0.005 ppt): 0 | C: number of panels, acid taste/acid smell slightly unpleasant (0.005 ppt): 0 | Flavor judgment: number of panels who judged acid taste/acid smell quality the highest (0.005 ppt): 0 | N: number of panels, irritation of acid reduced to give a mild acid taste (0.005 ppt): 0 | X: number of panels, acid taste reduced but piercing odor characteristic to aldehydes unpleasant (0.005 ppt): 0 | A: number of panels, acid taste/acid smell extreme and cause irritation (0.02 ppt): 8 | B: number of panels, acid taste/acid smell slightly strong and slightly cause irritation (0.02 ppt): 2 | C: number of panels, acid taste/acid smell slightly unpleasant (0.02 ppt): 0 | Flavor judgment: number of panels who judged acid taste/acid smell quality the highest (0.02 ppt): 0 | N: number of panels, irritation of acid reduced to give a mild acid taste (0.02 ppt): 0 | X: number of panels, acid taste reduced but piercing odor characteristic to aldehydes unpleasant (0.02 ppt): 0 | A: number of panels, acid taste/acid smell extreme and cause irritation (0.1 ppt): 5 | B: number of panels, acid taste/acid smell slightly strong and slightly cause irritation (0.1 ppt): 3 | C: number of panels, acid taste/acid smell slightly unpleasant (0.1 ppt): 2 | Flavor judgment: number of panels who judged acid taste/acid smell quality the highest (0.1 ppt): 0 | N: number of panels, irritation of acid reduced to give a mild acid taste (0.1 ppt): 0 | X: number of panels, acid taste reduced but piercing odor characteristic to aldehydes unpleasant (0.1 ppt): 0 | A: number of panels, acid taste/acid smell extreme and cause irritation (0.2 ppt): 4 | B: number of panels, acid taste/acid smell slightly strong and slightly cause irritation (0.2 ppt): 3 | C: number of panels, acid taste/acid smell slightly unpleasant (0.2 ppt): 3 | Flavor judgment: number of panels who judged acid taste/acid smell quality the highest (0.2 ppt): 0 | N: number of panels, irritation of acid reduced to give a mild acid taste (0.2 ppt): 0 | X: number of panels, acid taste reduced but piercing odor characteristic to aldehydes unpleasant (0.2 ppt): 0 | A: number of panels, acid taste/acid smell extreme and cause irritation (0.5 ppt): 1 | B: number of panels, acid taste/acid smell slightly strong and slightly cause irritation (0.5 ppt): 1 | C: number of panels, acid taste/acid smell slightly unpleasant (0.5 ppt): 2 | Flavor judgment: number of panels who judged acid taste/acid smell quality the highest (0.5 ppt): 1 | N: number of panels, irritation of acid reduced to give a mild acid taste (0.5 ppt): 6 | X: number of panels, acid taste reduced but piercing odor characteristic to aldehydes unpleasant (0.5 ppt): 0 | A: number of panels, acid taste/acid smell extreme and cause irritation (1 ppb): 0 | B: number of panels, acid taste/acid smell slightly strong and slightly cause irritation (1 ppb): 0 | C: number of panels, acid taste/acid smell slightly unpleasant (1 ppb): 3 | Flavor judgment: number of panels who judged acid taste/acid smell quality the highest (1 ppb): 0 | N: number of panels, irritation of acid reduced to give a mild acid taste (1 ppb): 3 | X: number of panels, acid taste reduced but piercing odor characteristic to aldehydes unpleasant (1 ppb): 4 | A: number of panels, acid taste/acid smell extreme and cause irritation (1 ppt): 0 | B: number of panels, acid taste/acid smell slightly strong and slightly cause irritation (1 ppt): 1 | C: number of panels, acid taste/acid smell slightly unpleasant (1 ppt): 3 | Flavor judgment: number of panels who judged acid taste/acid smell quality the highest (1 ppt): 2 | N: number of panels, irritation of acid reduced to give a mild acid taste (1 ppt): 6 | X: number of panels, acid taste reduced but piercing odor characteristic to aldehydes unpleasant (1 ppt): 0 | A: number of panels, acid taste/acid smell extreme and cause irritation (5 ppt): 0 | B: number of panels, acid taste/acid smell slightly strong and slightly cause irritation (5 ppt): 0 | C: number of panels, acid taste/acid smell slightly unpleasant (5 ppt): 2 | Flavor judgment: number of panels who judged acid taste/acid smell quality the highest (5 ppt): 4 | N: number of panels, irritation of acid reduced to give a mild acid taste (5 ppt): 8 | X: number of panels, acid taste reduced but piercing odor characteristic to aldehydes unpleasant (5 ppt): 0 | A: number of panels, acid taste/acid smell extreme and cause irritation (10 ppb): 0 | B: number of panels, acid taste/acid smell slightly strong and slightly cause irritation (10 ppb): 0 | C: number of panels, acid taste/acid smell slightly unpleasant (10 ppb): 2 | Flavor judgment: number of panels who judged acid taste/acid smell quality the highest (10 ppb): 0 | N: number of panels, irritation of acid reduced to give a mild acid taste (10 ppb): 2 | X: number of panels, acid taste reduced but piercing odor characteristic to aldehydes unpleasant (10 ppb): 6 | A: number of panels, acid taste/acid smell extreme and cause irritation (20 ppt): 0 | B: number of panels, acid taste/acid smell slightly strong and slightly cause irritation (20 ppt): 0 | C: number of panels, acid taste/acid smell slightly unpleasant (20 ppt): 4 | Flavor judgment: number of panels who judged acid taste/acid smell quality the highest (20 ppt): 3 | N: number of panels, irritation of acid reduced to give a mild acid taste (20 ppt): 6 | X: number of panels, acid taste reduced but piercing odor characteristic to aldehydes unpleasant (20 ppt): 0 | A: number of panels, acid taste/acid smell extreme and cause irritation (50 ppb): 0 | B: number of panels, acid taste/acid smell slightly strong and slightly cause irritation (50 ppb): 0 | C: number of panels, acid taste/acid smell slightly unpleasant (50 ppb): 1 | Flavor judgment: number of panels who judged acid taste/acid smell quality the highest (50 ppb): 0 | N: number of panels, irritation of acid reduced to give a mild acid taste (50 ppb): 1 | X: number of panels, acid taste reduced but piercing odor characteristic to aldehydes unpleasant (50 ppb): 8 | A: number of panels, acid taste/acid smell extreme and cause irritation (100 ppt): 0 | B: number of panels, acid taste/acid smell slightly strong and slightly cause irritation (100 ppt): 1 | C: number of panels, acid taste/acid smell slightly unpleasant (100 ppt): 3 | Flavor judgment: number of panels who judged acid taste/acid smell quality the highest (100 ppt): 0 | N: number of panels, irritation of acid reduced to give a mild acid taste (100 ppt): 4 | X: number of panels, acid taste reduced but piercing odor characteristic to aldehydes unpleasant (100 ppt): 2 | A: number of panels, acid taste/acid smell extreme and cause irritation (500 ppt): 0 | B: number of panels, acid taste/acid smell slightly strong and slightly cause irritation (500 ppt): 0 | C: number of panels, acid taste/acid smell slightly unpleasant (500 ppt): 3 | Flavor judgment: number of panels who judged acid taste/acid smell quality the highest (500 ppt): 0 | N: number of panels, irritation of acid reduced to give a mild acid taste (500 ppt): 4 | X: number of panels, acid taste reduced but piercing odor characteristic to aldehydes unpleasant (500 ppt): 3
